Source: US12527835B2, “Brevican-binding peptides for brain tumor imaging” (The Brigham and Women's Hospital, Inc., priority 2018, dated 2026)
pKd: −log10 of the molar value. Where a SMILES comes first, the peptide text is derived from it. Where no end group is shown, it is not given here. [ ]: non-standard residue; d: D form. Ahx = NCCCCCC(=O)O

Columns and labels:
GBM-6 cells = test: Flow cytometry cell uptake in GBM-6 cells; format: cell-based, human; conditions: Cy5.5-conjugated peptides; for uptake in GBM-6 cells at 4° C. compared to 37° C.: 5 μM, inhibition of endocytosis
Experimental: (§1) Cells were washed once with PBS and then, treated with 1 mL of 2.5 mM EDTA to dissociate the cells. The EDTA was removed by centrifugation, and PBS supplemented with 10% FBS was added to create a single-cell suspension. All peptide stocks were dissolved in DMSO, and stored at −20° C. in the dark. Cells were incubated with each peptide (at the desired final concentration, between 1-10 μM) for 3 hrs at 37° C. in the dark under constant rotation. After incubation, cells were washed 3× with PBS with 10% FBS (by centrifugation at 7000 rpm for 3 mins each). Then, cells were resuspended in 3.7% formaldehyde for fixation, and finally washed once with PBS. Cells were evaluated for peptide uptake (mean fluorescence intensity) by flow cytometry (10,000-20,000 events).

HEK-Bcan cells [1] = test: Flow cytometry cell uptake, HEK-Bcan versus regular HEK cells; format: cell-based, human; conditions: Cy5.5-conjugated peptides, 5 μM
Experimental: as §1

HEK-Bcan cells [2] = test: Flow cytometry blocking study with 50× molar excess of unlabeled peptide; format: cell-based, human; conditions: fluorescein-conjugated peptide 1 μM
Experimental: as §1
For blocking studies, cells were dissociated as described above and resuspended in cold PBS with 10% FBS. Cells were then incubated with a 50× molar excess of unlabeled peptide for 10 mins on ice, before adding the corresponding FITC-labeled peptide at a final concentration of 1 μM and incubated for 1.5 hrs on ice. Cells were then washed with cold PBS with 10% FBS, fixed and analyzed by flow cytometry.

BT188 glioma stem cells = test: Peptide uptake in BT188 (BΔg-high) versus BT145 (BΔg-low) glioma stem cells, fluorescence imaging; format: cell-based, human; conditions: fluorescein-labeled peptides, 5 μM
Description: FIGS. 3A-I. Peptide characterization for BΔg specificity in glioma stem cells. (a) Table summary listing the properties of 7 peptides (composed of 8 D-amino acid residues, SEQ ID NOs:3-9, in order of appearance) that were isolated from the OBOC library screen. MW=molecular weight; KD=Kyte-Doolittle scale for amino acid hydropathy (positive scores indicate […]) (Kyte and Doolittle, J. Mol. Biol. 157, 105-132 (1982)). (b) Chemical structure showing the linkage between the peptide and FITC. (c) Western blot analysis showing the level of BΔg and Bcan in human embryo kidney (HEK) cells, and Bcan-overexpressing HEK cells (HEK-Bcan). […] Each group was normalized to a no-blocking (vehicle) control. Statistics were performed using multiple t-tests, and significance was measured in comparison to each vehicle control (p<0.0001). (e) Uptake of fluorescein-labeled BTP-2, 7, 8, 9, and 10 (at 5 μM conc.) in BT188 (BΔg-high) or BT145 (BΔg-low) glioma stem cells (GSCs). Western blot analysis on the top right confirms the BΔg expression level. […] Statistics were performed using the two-way ANOVA and Tukey's Multiple Comparison test. (f) Chemical structure showing the linkage between the peptide and Cy5.5 dye. (g) Western blot analysis showing the expression of BΔg in GBM-6 cells, with negligible BΔg level in astrocytes or neural progenitor cells (NPC). (h) Graph showing the cell uptake ranking of the top 3 peptide candidates, BTP-7, 8 and 9 in GBM-6 cells as determined by flow cytometry analysis with s.d. error bars (5 μM conc.; nevents=20,000 cells; nexperiment=5). Each group is normalized to the control scramble peptide (Scr-8). Statistics were performed using the one-way ANOVA and Tukey's Multiple Comparison test (significance were measured in comparison to the Scr-8 control). (i) Bar graph showing the uptake of BTP-7, 8 and 9 in GBM-6 cells and NPC with 95% confidence interval error bars (1 μM conc.; nevents=20,000 cells). Statistics were performed using the two-way ANOVA and Sidak's Multiple Comparison test.

[3] = target: T1, recombinant BΔg protein (deglycosylated brevican) (Homo sapiens, UniProt Q96GW7); test: Octet steady state binding affinity to recombinant BΔg
T1 construct: purchased R&D Systems 4009-BC-050
T1 sequence (Q96GW7 23-911): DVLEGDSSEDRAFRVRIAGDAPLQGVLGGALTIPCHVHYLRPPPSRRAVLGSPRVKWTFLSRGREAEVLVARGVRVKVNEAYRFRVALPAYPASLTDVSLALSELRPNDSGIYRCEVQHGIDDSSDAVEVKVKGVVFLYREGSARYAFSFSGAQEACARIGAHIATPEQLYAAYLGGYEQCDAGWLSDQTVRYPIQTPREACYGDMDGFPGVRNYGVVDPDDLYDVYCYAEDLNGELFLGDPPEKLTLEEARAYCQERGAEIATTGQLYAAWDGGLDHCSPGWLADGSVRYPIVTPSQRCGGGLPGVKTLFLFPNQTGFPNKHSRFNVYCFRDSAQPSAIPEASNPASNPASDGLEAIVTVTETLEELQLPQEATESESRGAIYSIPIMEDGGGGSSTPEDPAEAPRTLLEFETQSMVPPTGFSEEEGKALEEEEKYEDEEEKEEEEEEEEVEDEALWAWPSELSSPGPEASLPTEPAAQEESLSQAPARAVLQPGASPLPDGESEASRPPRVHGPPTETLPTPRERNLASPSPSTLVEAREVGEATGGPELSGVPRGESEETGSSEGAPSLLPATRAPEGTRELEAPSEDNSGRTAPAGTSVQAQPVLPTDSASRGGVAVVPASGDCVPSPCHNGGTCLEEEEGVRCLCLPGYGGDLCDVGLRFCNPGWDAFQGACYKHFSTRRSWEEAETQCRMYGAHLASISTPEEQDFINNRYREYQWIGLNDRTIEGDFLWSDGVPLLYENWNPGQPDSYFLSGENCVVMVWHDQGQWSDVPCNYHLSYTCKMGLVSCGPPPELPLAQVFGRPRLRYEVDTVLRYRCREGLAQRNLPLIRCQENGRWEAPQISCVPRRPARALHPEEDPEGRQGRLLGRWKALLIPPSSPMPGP
Experimental: A ForteBio OctetRed384 instrument was used to study the binding kinetics of each peptide to recombinant human brevican (re-suspended in PBS and 0.1 mM EDTA, pH 6.8). The brevican protein was deglycosylated prior to experimental use in water+0.05% tween, PI, sialidase, 0-glycosidase, N-glycosidase in sodium acetate [200 mM], NaCl [250 mM], Tris-HCl [200 mM], pH 7.5.) in the presence of protease inhibitor overnight at 4° C. (this entire composition will be referred to as ‘de-glycosylation buffer’). […] The final volume for all the solutions was 80 μl/well. Assays were performed at 30° C. in solid black 384-well plates (Geiger Bio-One). Prior to beginning, Ni-NTA biosensors were soaked for 10 min in working buffer. Before loading the protein onto each biosensor, a baseline was established in working buffer for 60 s. Deglycosylated brevican (50 μg/ml BΔg; His-tagged) was loaded on the surface of each biosensors for 180 s. […] Reference biosensors were also included in the plate as internal controls, where biosensors were exposed to the ‘de-glycosylation buffer’ lacking brevican protein during the loading step. A 60 s biosensor washing step was applied. Then, biosensors were exposed to the analyte (peptide) in working buffer (ranging between 0-10 μM BTP) for 300 s during the ‘association’ step. Finally, the biosensors were exposed to working buffer (without peptide) during the ‘dissociation’ step for 600 s. Binding affinity of each peptide was assessed through steady state analysis, where the response unit was plotted over peptide concentration. All data was plotted and curves were fitted using the non-linear ‘one-site specific binding’ fit, and the dissociation constant (KD) value was calculated using the GraphPad Prism software.
Binding kinetics analyses were performed using the Octet RED platform (Forte Bio) to measure the binding affinity of BTP-7, 8 and 9 to purified recombinant BΔg protein.

Compound | uptake in GBM-6 GSCs compared with astrocytes (GBM-6 cells) | uptake in GBM-6 cells at 4° C. compared to 37° C. (GBM-6 cells) | uptake in HEK-Bcan cells compared with regular HEK cells (HEK-Bcan cells [1]) | uptake in HEK-Bcan cells in the presence of the blocking peptide (HEK-Bcan cells [2]) | size of the difference in uptake between BT188 and BT145 GSCs (ranking) (BT188 glioma stem cells) | uptake in BT188 GSCs compared with BT145 GSCs (BT188 glioma stem cells) | pKd [3]
BTP-8-Cy5.5 ([dT][dI][dR][dK][dL][dV][dR][dH]-{Ahx-Pra(Cy5.5)-NH2}) | significantly higher | significantly reduced | significantly higher |  |  |  | 
BTP-10: BΔg-targeting peptide of 8 D-amino acid residues from OBOC screen; sequence only in FIG. 3A ([dS][dH][dW][dA][dV][dN][dR][dF]; not fully specified) |  |  |  | reduced uptake |  |  | 
BTP-9-Cy5.5 ([dA][dD][dR][dR][dQ][dR][dA][dI]-{Ahx-Pra(Cy5.5)-NH2}) | significantly higher | significantly reduced | significantly higher |  |  |  | 
CC[C@@H](C)[C@@H](NC(=O)[C@@H](C)NC(=O)[C@@H](CCCNC(=N)N)NC(=O)[C@@H](CCC(N)=O)NC(=O)[C@@H](CCCNC(=N)N)NC(=O)[C@@H](CCCNC(=N)N)NC(=O)[C@@H](CC(=O)O)NC(=O)[C@@H](C)N)C(N)=O [BTP-9] (H-[dA][dD][dR][dR][dQ][dR][dA][dI]-NH2; N-terminus and C-terminus assumed) |  |  |  | reduced uptake | largest and most significant difference | greater uptake | 5.82
